Measurements from patent US20170128489A1 (priority 2014, published 2017).
Like-named read-outs stand apart in the source and are kept apart here.

What was measured:
[1] = test system: influenza A (S31N), A/California/07/2009; format: cell-based, Influenza A virus
M2 (22-62, S31N) = M2 (22-62, S31N) (Influenza A virus, UniProt P0DOF5, S31N); format: biochemical
[2] = test system: influenza A (S31N), A/California/07/2009; format: cell-based, Influenza A virus; remark: listed apart in the source
[3] = target: influenza A M2 channels (A/Udorn/72, S31N mutant) (Influenza A virus, UniProt P0DOF5, S31N); format: cell-based; settings: for Percent Block / EC50: pH 5.3
[4] = target: M2 22-62 peptide, mutant A/Udorn/72 S31N (Influenza A virus, UniProt P0DOF5, S31N); format: biochemical

Compound | % Block [1] [%] | EC50 [1] [µM] | % Block (M2 (22-62, S31N)) [%] | % Block [2] [%] | EC50 [2] [µM] | Percent Washout [3] [%] | Percent Block [3] | Mutant Percent Block [4] [%] | Mutant w/ Compound Proton Flux [4] [H^+/sec/channel] | EC50 [3] [µM] | EC50 (M2 (22-62, S31N)) [µM]
O=C(O)CN(CC(=O)O)C12CC3CC(CC(C3)C1)C2.[Cu] [Amt-IDA-Cu, Copper N-(1-adamantyl)-iminodiacetic acid] | 82 | 21.8 | 82 | – | – | – | – | – | – | – | –
O=C1C[N](C2CCCCCCC2)[Cu]2([O]1)[O]C(=O)C[N]2C1CCCCCCC1 [Bis(CO-IMA)-Cu, Copper biscyclooctyl iminomonoacetic acid] | – | – | – | 66.4 | 25.3 | 11 | 81% | 70.38 | 16.95 | – | –
O=C(O)CN(CC(=O)O)C1CCCCCCC1 [CO-IDA, Cylcooctyliminodiacetic acid] | – | – | – | – | – | – | No Block | – | – | – | –
O=C(O)CN(CC(=O)O)C1CCCCCCC1.[Cu] [CO-IDA-Cu, Copper cyclooctyliminodiacetic acid] | – | – | – | 62.2 | 30.3 | 94 | 26% | 75.75 | 12.89 | – | –
O=C(O)CN(CC(=O)O)C1CCCCCCC1.[Zn] [CO-IDA-Zn, Zinc cyclooctyliminodiacetic acid] | – | – | – | 61.5 | – | 80 | 32% | 76.29 | 13.21 | – | –
NC(=O)CN(CC(N)=O)C1CCCCCCC1 [CO-IDAm, Cyclooctylimidodiacetamide] | – | – | – | – | – | 100 | 17% | – | – | – | –
CC(=O)[O][Zn]1[O]C(=O)C[N]1C1CCCCCCC1 [CO-IMA-Zn, Zinc cyclooctylaminoacetic acid] | – | – | – | 79.8 | 12.6 | 93 | 42% | – | – | – | –
CC(=O)[O-].CC(=O)[O-].[Cu+2] [Cu(Acetate)2, reference compound] | – | – | – | 38 | 40.8 | 4 | 70% | 67.23 | 17.85 | 74 | –
NCCNCCN.[Cl][Cu][Cl] [Cu(dien)Cl2, reference compound] | 66 | 51.6 | – | – | – | – | – | – | – | – | –
[Cl][Cu][Cl] [CuCl2, reference compound] | 63 | 57.2 | 94 | – | – | – | – | – | – | – | 6.1
Cobalt Biscyclooctylimidodiacetic acid [Bis(CO-IDA)-Co] | – | – | – | 50.6 | 24.4 | 89 | 28% | – | – | 240 | –
Cobalt bisethylenediamine pinanamine imidazole [Pin-Imid-Co-Bis(en)] | – | – | – | 65.6 | 13.1 | – | No Block | – | – | – | –
Copper N-(1-adamantyl)iminoacetate acetylacetonate [Amt-IMA-Cu-ACAC] | 97 | 2.91 | 96 | – | – | 58 | 65% | – | – | – | –
Copper N-(1-cyclooctyl)iminoacetate acetylacetonate [CO-IMA-Cu-ACAC] | – | – | – | 65.7 | 13.1 | 16 | 73% | – | – | – | –
Copper cyclooctylimidodiacetamide [CO-IDAm-Cu] | – | – | – | 60.2 | 33.5 | 10 | 86% | – | – | – | –
Copper pinanamine imidazole [Pin-Imid-Cu] | – | – | – | 71.6 | – | – | – | – | – | – | –
Zinc cyclooctylimidodiacetamide [CO-IDAm-Zn] | – | – | – | 54 | 21.3 | 74 | 42% | – | – | – | –
